Measurements: the kinase profiling compilation of Christmann-Franck et al. (2016)

Key:
Test in all cases: radiometric filter-binding kinase assay
RPS6KA1 KD1 KD2 (human) = RPS6KA1 KD1 KD2 (human) (UniProt Q15418)
MARK3 (human) = MARK3 (human) (UniProt P27448)
DDR2 (human) = DDR2 (human) (UniProt Q16832)
MAPK3 (human) = MAPK3 (human) (UniProt P27361)
EPHB1 (human) = EPHB1 (human) (UniProt P54762)
PAK4 (human) = PAK4 (human) (UniProt O96013)
PAK7 (human) = PAK7 (human) (UniProt Q9P286); conditions: compound 1.0 µM
YES1 (human) = YES1 (human) (UniProt P07947); conditions: compound 10.0 µM
MAPKAPK2 (human) = MAPKAPK2 (human) (UniProt P49137)
MAPK13 (human) = MAPK13 (human) (UniProt O15264)
PRKCG (human) = PRKCG (human) (UniProt P05129)
AURKB (human) = AURKB (human) (UniProt Q96GD4)
AURKB (human), sequence (Q96GD4 whole entry, looked up): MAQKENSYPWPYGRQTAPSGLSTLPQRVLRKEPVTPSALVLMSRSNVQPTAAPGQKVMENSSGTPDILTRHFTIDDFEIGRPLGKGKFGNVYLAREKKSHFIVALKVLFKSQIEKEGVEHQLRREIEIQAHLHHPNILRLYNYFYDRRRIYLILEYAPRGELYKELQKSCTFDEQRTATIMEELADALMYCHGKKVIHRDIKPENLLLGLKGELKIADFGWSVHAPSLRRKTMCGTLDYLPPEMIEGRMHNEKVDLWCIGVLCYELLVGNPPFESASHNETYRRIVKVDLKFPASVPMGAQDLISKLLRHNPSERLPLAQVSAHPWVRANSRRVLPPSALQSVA

CAMKK2 (human) = CAMKK2 (human) (UniProt Q96RR4)
MAPK8 (human) = MAPK8 (human) (UniProt P45983)
MAPK8 (human), sequence (P45983 whole entry, looked up): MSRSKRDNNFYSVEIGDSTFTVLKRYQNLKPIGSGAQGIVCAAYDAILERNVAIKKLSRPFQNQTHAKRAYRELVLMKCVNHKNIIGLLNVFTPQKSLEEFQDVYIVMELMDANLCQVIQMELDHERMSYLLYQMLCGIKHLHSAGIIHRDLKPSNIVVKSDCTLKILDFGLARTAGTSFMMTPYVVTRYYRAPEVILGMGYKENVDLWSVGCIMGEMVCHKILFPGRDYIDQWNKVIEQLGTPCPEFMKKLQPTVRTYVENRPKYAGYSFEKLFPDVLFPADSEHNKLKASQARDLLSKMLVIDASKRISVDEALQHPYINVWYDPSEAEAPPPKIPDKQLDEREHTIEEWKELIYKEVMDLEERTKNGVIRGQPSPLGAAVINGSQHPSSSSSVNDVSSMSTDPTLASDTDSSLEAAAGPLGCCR

INSRR (human) = INSRR (human) (UniProt P14616)
TTK (human) = TTK (human) (UniProt P33981)
MAP3K11 (human) = MAP3K11 (human) (UniProt Q16584)
PKN2 (human) = PKN2 (human) (UniProt Q16513)
PKN2 (human), sequence (Q16513 whole entry, looked up): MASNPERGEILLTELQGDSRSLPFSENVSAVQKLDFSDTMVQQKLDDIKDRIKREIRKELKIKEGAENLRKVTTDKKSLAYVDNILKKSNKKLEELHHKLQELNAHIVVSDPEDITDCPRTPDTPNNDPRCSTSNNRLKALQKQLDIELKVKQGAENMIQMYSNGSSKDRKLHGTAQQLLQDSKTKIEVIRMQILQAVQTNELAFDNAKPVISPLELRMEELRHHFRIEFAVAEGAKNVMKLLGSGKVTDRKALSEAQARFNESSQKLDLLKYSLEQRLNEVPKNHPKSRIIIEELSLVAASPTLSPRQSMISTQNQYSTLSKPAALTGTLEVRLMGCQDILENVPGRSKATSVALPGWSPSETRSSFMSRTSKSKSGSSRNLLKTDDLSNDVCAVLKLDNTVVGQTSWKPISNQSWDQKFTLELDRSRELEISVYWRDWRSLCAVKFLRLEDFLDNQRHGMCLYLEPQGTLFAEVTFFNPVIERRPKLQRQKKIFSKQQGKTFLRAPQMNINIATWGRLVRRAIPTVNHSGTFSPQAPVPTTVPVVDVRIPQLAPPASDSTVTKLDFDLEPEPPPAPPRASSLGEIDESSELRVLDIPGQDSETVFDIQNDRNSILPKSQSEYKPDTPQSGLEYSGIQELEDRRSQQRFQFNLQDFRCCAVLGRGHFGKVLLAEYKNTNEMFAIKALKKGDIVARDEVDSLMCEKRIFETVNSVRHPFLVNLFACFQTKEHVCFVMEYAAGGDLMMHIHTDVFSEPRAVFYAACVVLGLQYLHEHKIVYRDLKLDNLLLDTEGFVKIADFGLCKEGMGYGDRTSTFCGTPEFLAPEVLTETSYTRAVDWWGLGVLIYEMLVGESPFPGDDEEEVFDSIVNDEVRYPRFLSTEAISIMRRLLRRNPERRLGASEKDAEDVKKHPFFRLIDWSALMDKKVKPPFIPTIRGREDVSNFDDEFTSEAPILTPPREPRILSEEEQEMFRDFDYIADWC

MAP4K5 (human) = MAP4K5 (human) (UniProt Q9Y4K4)
NEK2 (human) = NEK2 (human) (UniProt P51955)
FGFR1 (human) = FGFR1 (human) (UniProt P11362)
FGFR1 (human), sequence (P11362 whole entry, looked up): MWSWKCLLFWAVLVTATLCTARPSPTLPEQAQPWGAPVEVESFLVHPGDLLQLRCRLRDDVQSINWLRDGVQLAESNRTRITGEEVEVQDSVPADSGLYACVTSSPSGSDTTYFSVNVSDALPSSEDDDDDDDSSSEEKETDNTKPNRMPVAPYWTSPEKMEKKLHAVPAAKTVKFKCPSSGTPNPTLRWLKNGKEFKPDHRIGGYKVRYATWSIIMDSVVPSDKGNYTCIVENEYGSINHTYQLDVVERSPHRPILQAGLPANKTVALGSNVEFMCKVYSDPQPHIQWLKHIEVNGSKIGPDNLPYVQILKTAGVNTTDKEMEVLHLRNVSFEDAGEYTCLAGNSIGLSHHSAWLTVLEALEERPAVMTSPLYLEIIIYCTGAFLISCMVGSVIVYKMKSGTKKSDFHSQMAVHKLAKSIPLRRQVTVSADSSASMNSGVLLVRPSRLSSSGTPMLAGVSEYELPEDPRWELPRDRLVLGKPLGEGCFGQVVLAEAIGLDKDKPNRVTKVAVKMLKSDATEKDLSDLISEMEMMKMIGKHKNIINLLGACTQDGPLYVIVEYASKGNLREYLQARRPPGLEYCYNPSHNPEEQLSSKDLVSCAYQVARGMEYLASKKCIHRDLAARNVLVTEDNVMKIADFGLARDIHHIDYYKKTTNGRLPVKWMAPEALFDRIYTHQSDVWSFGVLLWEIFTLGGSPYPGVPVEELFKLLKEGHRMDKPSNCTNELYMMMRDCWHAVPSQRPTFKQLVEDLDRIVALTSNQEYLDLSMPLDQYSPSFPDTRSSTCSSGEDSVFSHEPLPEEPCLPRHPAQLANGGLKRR

WNK1 (human) = WNK1 (human) (UniProt Q9H4A3)
[1] = molecular target: PRKAA1 PRKAB2 PRKAG1 (human) (UniProt O43741+Q13131+P54619)
RIPK2 (human) = RIPK2 (human) (UniProt O43353); conditions: compound 1.0 µM
MAP3K7 (human) = MAP3K7 (human) (UniProt O43318)
MAP3K7 (human), sequence (O43318 whole entry, looked up): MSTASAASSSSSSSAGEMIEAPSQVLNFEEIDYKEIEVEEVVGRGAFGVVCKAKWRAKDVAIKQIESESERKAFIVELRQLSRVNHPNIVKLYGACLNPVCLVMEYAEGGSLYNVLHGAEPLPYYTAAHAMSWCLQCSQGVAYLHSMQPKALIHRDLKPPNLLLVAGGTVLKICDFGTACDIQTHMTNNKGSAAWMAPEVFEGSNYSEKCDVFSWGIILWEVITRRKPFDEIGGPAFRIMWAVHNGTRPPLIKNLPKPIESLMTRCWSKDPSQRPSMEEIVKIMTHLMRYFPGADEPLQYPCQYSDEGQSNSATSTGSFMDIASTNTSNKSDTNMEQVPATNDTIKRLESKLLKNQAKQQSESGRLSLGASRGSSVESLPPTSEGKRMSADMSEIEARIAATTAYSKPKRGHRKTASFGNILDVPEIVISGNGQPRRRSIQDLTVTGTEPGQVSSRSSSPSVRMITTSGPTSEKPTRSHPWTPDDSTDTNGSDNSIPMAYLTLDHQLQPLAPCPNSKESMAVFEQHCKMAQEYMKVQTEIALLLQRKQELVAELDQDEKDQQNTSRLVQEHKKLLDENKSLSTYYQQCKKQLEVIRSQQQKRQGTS

MAP2K6 (human) = MAP2K6 (human) (UniProt P52564)
MARK2 (human) = MARK2 (human) (UniProt Q7KZI7)
MARK2 (human), sequence (Q7KZI7 whole entry, looked up): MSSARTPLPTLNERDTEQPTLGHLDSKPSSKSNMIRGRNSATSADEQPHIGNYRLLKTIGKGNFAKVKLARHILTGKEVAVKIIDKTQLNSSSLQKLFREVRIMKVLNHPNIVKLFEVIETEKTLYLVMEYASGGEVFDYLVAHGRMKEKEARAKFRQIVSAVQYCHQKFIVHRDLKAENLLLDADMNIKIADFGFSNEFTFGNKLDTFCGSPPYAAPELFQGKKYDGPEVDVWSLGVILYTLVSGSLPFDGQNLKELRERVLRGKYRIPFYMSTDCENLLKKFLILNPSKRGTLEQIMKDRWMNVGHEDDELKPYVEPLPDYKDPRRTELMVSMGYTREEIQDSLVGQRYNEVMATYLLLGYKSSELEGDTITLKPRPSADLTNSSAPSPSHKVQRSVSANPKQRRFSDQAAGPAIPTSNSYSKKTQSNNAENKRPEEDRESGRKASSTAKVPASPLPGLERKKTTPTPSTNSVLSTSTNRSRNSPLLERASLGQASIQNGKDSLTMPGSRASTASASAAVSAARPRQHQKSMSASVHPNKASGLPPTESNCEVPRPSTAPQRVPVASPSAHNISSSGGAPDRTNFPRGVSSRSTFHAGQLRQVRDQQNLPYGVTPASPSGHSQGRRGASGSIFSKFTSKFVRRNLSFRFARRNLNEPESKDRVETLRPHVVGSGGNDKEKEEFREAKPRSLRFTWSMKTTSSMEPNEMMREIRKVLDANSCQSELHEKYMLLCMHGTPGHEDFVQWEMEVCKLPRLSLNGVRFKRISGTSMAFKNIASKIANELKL

TSSK1B (human) = TSSK1B (human) (UniProt Q9BXA7)
PRKAA1 or PRKAA2 (rat) = conditions: compound 1.0 µM; accession and sequence are those of the human protein
MAPKAPK3 (human) = MAPKAPK3 (human) (UniProt Q16644)
MAPKAPK3 (human), sequence (Q16644 whole entry, looked up): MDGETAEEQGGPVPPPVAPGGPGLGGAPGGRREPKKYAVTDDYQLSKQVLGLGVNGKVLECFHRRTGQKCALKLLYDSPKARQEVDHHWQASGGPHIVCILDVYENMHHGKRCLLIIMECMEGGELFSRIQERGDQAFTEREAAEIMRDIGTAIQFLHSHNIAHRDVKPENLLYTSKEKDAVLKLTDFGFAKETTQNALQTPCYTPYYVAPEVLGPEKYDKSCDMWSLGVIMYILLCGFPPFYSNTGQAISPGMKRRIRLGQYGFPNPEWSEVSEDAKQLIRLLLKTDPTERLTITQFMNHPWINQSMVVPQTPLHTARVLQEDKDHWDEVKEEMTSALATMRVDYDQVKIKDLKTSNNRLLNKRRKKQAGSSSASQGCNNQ

MAPK15 (human) = MAPK15 (human) (UniProt Q8TD08)
MST4 (human) = MST4 (human) (UniProt Q9P289)

CNc1nc(Nc2ccc(C(=O)N3CCOCC3)cc2OC)ncc1Cl
residual activity (RPS6KA1 KD1 KD2 (human); compound 1.0 µM): 87%
residual activity (RPS6KA1 KD1 KD2 (human); compound 10.0 µM): 54%
residual activity (MARK3 (human); compound 1.0 µM): 91%
residual activity (MARK3 (human); compound 10.0 µM): 78%
residual activity (DDR2 (human); compound 1.0 µM): 103%
residual activity (DDR2 (human); compound 10.0 µM): 90%
residual activity (MAPK3 (human); compound 1.0 µM): 95%
residual activity (MAPK3 (human); compound 10.0 µM): 104%
residual activity (EPHB1 (human); compound 1.0 µM): 115%
residual activity (EPHB1 (human); compound 10.0 µM): 86%
residual activity (PAK4 (human); compound 1.0 µM): 87%
residual activity (PAK4 (human); compound 10.0 µM): 84%
residual activity (PAK7 (human)): 88%
residual activity (YES1 (human)): 90%
residual activity (MAPKAPK2 (human); compound 1.0 µM): 88%
residual activity (MAPKAPK2 (human); compound 10.0 µM): 102%
residual activity (MAPK13 (human); compound 1.0 µM): 87%
residual activity (MAPK13 (human); compound 10.0 µM): 86%
residual activity (PRKCG (human); compound 1.0 µM): 93%
residual activity (PRKCG (human); compound 10.0 µM): 108%
residual activity (AURKB (human); compound 1.0 µM): 83%
residual activity (AURKB (human); compound 10.0 µM): 42%
residual activity (CAMKK2 (human); compound 1.0 µM): 52%
residual activity (CAMKK2 (human); compound 10.0 µM): 31%
residual activity (MAPK8 (human); compound 1.0 µM): 89%
residual activity (MAPK8 (human); compound 10.0 µM): 37%
residual activity (INSRR (human); compound 1.0 µM): 126%
residual activity (INSRR (human); compound 10.0 µM): 97%
residual activity (TTK (human); compound 1.0 µM): 71%
residual activity (TTK (human); compound 10.0 µM): 57%
residual activity (MAP3K11 (human); compound 1.0 µM): 75%
residual activity (MAP3K11 (human); compound 10.0 µM): 43%
residual activity (PKN2 (human); compound 1.0 µM): 102%
residual activity (PKN2 (human); compound 10.0 µM): 92%
residual activity (MAP4K5 (human); compound 1.0 µM): 83%
residual activity (MAP4K5 (human); compound 10.0 µM): 82%
residual activity (NEK2 (human); compound 1.0 µM): 63%
residual activity (NEK2 (human); compound 10.0 µM): 90%
residual activity (FGFR1 (human); compound 1.0 µM): 89%
residual activity (FGFR1 (human); compound 10.0 µM): 86%
residual activity (WNK1 (human); compound 1.0 µM): 62%
residual activity (WNK1 (human); compound 10.0 µM): 99%
residual activity ([1]; compound 1.0 µM): 91%
residual activity ([1]; compound 10.0 µM): 71%
residual activity (RIPK2 (human)): 79%
residual activity (MAP3K7 (human); compound 1.0 µM): 74%
residual activity (MAP3K7 (human); compound 10.0 µM): 25%
residual activity (MAP2K6 (human); compound 1.0 µM): 74%
residual activity (MAP2K6 (human); compound 10.0 µM): 65%
residual activity (MARK2 (human); compound 1.0 µM): 85%
residual activity (MARK2 (human); compound 10.0 µM): 90%
residual activity (TSSK1B (human); compound 1.0 µM): 51%
residual activity (TSSK1B (human); compound 10.0 µM): 19%
residual activity (PRKAA1 or PRKAA2 (rat)): 89%
residual activity (MAPKAPK3 (human); compound 1.0 µM): 120%
residual activity (MAPKAPK3 (human); compound 10.0 µM): 81%
residual activity (MAPK15 (human); compound 1.0 µM): 74%
residual activity (MAPK15 (human); compound 10.0 µM): 82%
residual activity (MST4 (human); compound 1.0 µM): 101%
residual activity (MST4 (human); compound 10.0 µM): 106%
